Source: patent US11548891B1, “Quaternary ammonium salts of phenanthroindolizidine and phenanthroquinolizidine alkaloids as hypoxia-targeted anticancer agents” (BATTERJEE MEDICAL COLLEGE, priority 2022, dated 2023)
Where two headings read alike, the source gives them in different places.

Legend:
[1] = PBS (pH 7.4) solubility; format: physicochemical
Description: (§1) Water solubility, log D, and PAMPA-BBB were evaluated using the protocols as described in Omran, et. al. [Omran, Z., et. al., Chem. Pharm. Bull., 2019, 67, 1208-1210, incorporated herein by reference in its entirety].

[2] = LogD; format: physicochemical
Description: as §1

[3] = BBB-Parallel Artificial Membrane Permeability Assay (BBB-PAMPA); format: in vitro ADME
Description: The physicochemical properties of the new compounds were evaluated (Table 1). […] Consequently, these derivatives lost their BBB penetrability, as predicted by the BBB-Parallel Artificial Membrane Permeability Assay (BBB-PAMPA), whereas their parent alkaloids had free passage through the BBB.
as §1

[4] = Mouse microsomal liver stability assay; conditions: mouse hepatic microsomes, 2 μM, 37° C.
Description: Protoc. […] Microsomal incubations were carried out in 96-well plates in 5 aliquots of 40 μL each. […] Control incubations were performed by replacing the NADPH-cofactor system with PBS. The additional control incubations in PBS (with 3.3 mM MgCl2) without added microsomes were carried out in this study. […] The incubations were performed in duplicates. Five time points over 40 min had been analyzed. The reactions were stopped by adding 12 volumes of 90% acetonitrile-water to incubation aliquots, followed by protein sedimentation by centrifuging at 5500 rpm for 3 min. The supernatants were analyzed using LC-MS as mentioned above.

[5] = tested on: HEK293; experiment: Cytotoxicity under normoxia (MTT), HEK293; format: cell-based, Human
Description: (§2) The cytotoxicity of the compounds 5a-c and their parent alkaloids was evaluated by the 3-[4,5-dimethylthiazole-2-yl]-2,5-diphenyltetrazolium bromide (MTT) assay against 5 cancerous and 2 non-cancerous cell lines (Table 4).
(§3) The eight cell lines HEK293 (Human embryonic kidney 293), CHO-Kt (Chinese hamster ovary K1), MCF-7 cells (Human breast adenocarcinoma), HCT116 (human colorectal carcinoma), RKO (Human rectal carcinoma), SW480 (human colorectal carcinoma), H460 (Human lung cancer), and MRCS (Normal human fetal lung fibroblast), were obtained from the ATCC. The cell lines were routinely grown in alpha minimum essential medium (α-MEM) containing 5% fetal calf serum (FCS). The appropriate number of cells (HCT116=400 cells/well, H460 cells=600 cells/well) were seeded into 96-well plates under normoxic or hypoxic conditions. Cells were plated in 100 μL α-MEM containing 10% FCS, 10 mM D-Glucose and 0.2 mM 20-deoxycytidine. After incubation for 2 h, the compounds were added at the appropriate concentration and incubated for further 4 h. The cells were then washed three times with drug-free α-MEM (containing 5% FCS and pen/strep). The plates were then incubated for 5 days under normoxic conditions. The cells were stained with sulphorhodamine B to measure total cells as per the standard procedure described in Skehan, et. al. [Skehan, P., et. al., J. Natl. Cancer Inst., 1990, 82, 1107-1112, incorporated herein by reference in its entirety]. The IC50 was determined by interpolation as the compound concentration reducing staining to 50% of controls on the same plate as per the standard procedure described in Guise, et. al. [Guise, C. P., et. al., Biochem. Pharmacol., 2007, 74, 810-820, incorporated herein by reference in its entirety].

[6] = tested on: CHO-K1; experiment: Cytotoxicity under normoxia (MTT), CHO-K1; format: cell-based, Chinese hamster
Description: as §2, §3

[7] = tested on: MCF7; experiment: Cytotoxicity under normoxia (MTT), MCF7; format: cell-based, Human
Description: as §2, §3

[8] = tested on: HCT116; experiment: Cytotoxicity under normoxia (MTT), HCT116; format: cell-based, human
Description: as §2, §3

[9] = tested on: RKO; experiment: Cytotoxicity under normoxia (MTT), RKO; format: cell-based, Human; conditions: read-out: IC50 RKO
Description: as §2, §3

[10] = tested on: SW480; experiment: Cytotoxicity under normoxia (MTT), SW480; format: cell-based, human
Description: as §2, §3

[11] = tested on: MRC5; experiment: Cytotoxicity under normoxia (MTT), MRC5; format: cell-based, human
Description: as §2, §3

[12] = tested on: HCT116; experiment: Cytotoxicity under normoxia and hypoxia (anaerobic chamber), HCT116; format: cell-based, human; conditions: for IC50: 4 h exposure
Description: (§4) The ability of the designed prodrugs to liberate the active alkaloids in hypoxic tumors was evaluated by testing them under hypoxic conditions using an anaerobic chamber. The three prodrugs 5a-c and their parent alkaloids as well as the reference compounds PR-104A, the parent alcohol form of the phosphate pre-prodrug PR-104, and evofosfamide were tested using the HCT116 and H460 cell lines under both normoxic and hypoxic conditions (Table 5). The prodrugs were much less cytotoxic than the parent drugs, in agreement with the results using the other cell lines described above (see FIG. 6).
as §3

[13] = tested on: H460; experiment: Cytotoxicity under normoxia and hypoxia (anaerobic chamber), H460; format: cell-based, Human; conditions: for IC50: 4 h exposure
Description: as §4, §3

[14] = normoxia, read-out: IC50 HEK293
[15] = normoxia, read-out: IC50 CHO-K1
[16] = normoxia, read-out: IC50 HCT116
[17] = HTC 116, hypoxia, read-out: IC50 (Hypoxia)
[18] = HTC 116, normoxia, read-out: IC50 (Normoxia)
[19] = H460, hypoxia, read-out: IC50 (Hypoxia)
[20] = H460, normoxia, read-out: IC50 (Normoxia)
[21] = Homo sapiens, MCF7, read-out: IC50 MCF7
[22] = Homo sapiens, HCT-116, read-out: IC50 HCT116
[23] = Homo sapiens, SW480, read-out: IC50 SW480
[24] = Homo sapiens, MRC5, read-out: IC50 MRC5
[25] = Homo sapiens, HCT-116, HTC 116, hypoxia, read-out: IC50 (Hypoxia)
[26] = Homo sapiens, HCT-116, HTC 116, normoxia, read-out: IC50 (Normoxia)
[27] = Homo sapiens, NCI-H460, H460, hypoxia, read-out: IC50 (Hypoxia)
[28] = Homo sapiens, NCI-H460, H460, normoxia, read-out: IC50 (Normoxia)

COc1ccc2c3c(c4cc(OC)c(OC)cc4c2c1)C[C@H]1CCCN1C3 [(R)-Antofine, (R)-antofine]
PBS (pH 7.4) Solubility μM Mean ± SE [1]: 27 ± 2 μM | LogD Mean ± SE [2]: 3.68 ± 0.03 | Permeability (Papp) Log [10^−6 cm/s] Mean ± SE [3]: −5.6 ± 0.58 Log [10^−6 cm/s] | Kel, min^−1 (elimination rate constant) [4]: 0.002 ± 0 min⁻¹ | t1/2, min [4]: 1.12 ± 0.035 h | IC50 [5, 14]: 340 ± 43 nM | IC50 [6, 15]: 33 ± 50 nM | IC50 ([7]; normoxia, read-out: IC50 MCF7): 2 nM | IC50 [8, 16]: 2 nM | IC50 ([9]; normoxia): 2 nM | IC50 ([10]; normoxia, read-out: IC50 SW480): 9 ± 2 nM | IC50 ([11]; normoxia, read-out: IC50 MRC5): 6 ± 2 nM | HCR (Hypoxia Cytotoxicity Ratio = normoxic IC50/hypoxic IC50) ([12]; HTC 116): 0.4 | IC50 [12, 17]: 16.7 nM | IC50 [12, 18]: 23.9 nM | HCR (Hypoxia Cytotoxicity Ratio = normoxic IC50/hypoxic IC50) ([13]; H460): 0.6 | IC50 [13, 19]: 25.4 nM | IC50 [13, 20]: 29.2 nM

COc1cc2c3c(c4cc(OC)c(OC)cc4c2cc1OC)CN1CCC[C@@H]1C3 [(R)-Tylophorine]
IC50 ([7]; normoxia, read-out: IC50 MCF7): 101 ± 88 nM | IC50 [8, 16]: 440 ± 36 nM | IC50 ([9]; normoxia): 338 ± 61 nM | IC50 ([10]; normoxia, read-out: IC50 SW480): 1150 ± 244 nM | IC50 ([11]; normoxia, read-out: IC50 MRC5): 95 ± 6 nM | HCR (Hypoxia Cytotoxicity Ratio = normoxic IC50/hypoxic IC50) ([12]; HTC 116): 0.6 | IC50 [12, 17]: 56.4 nM | IC50 [12, 18]: 1710 nM | HCR (Hypoxia Cytotoxicity Ratio = normoxic IC50/hypoxic IC50) ([13]; H460): 1.1 | IC50 [13, 19]: 161 nM | IC50 [13, 20]: 175 nM

COc1cc2c3c(c4cc(OC)c(OC)cc4c2cc1OC)CN1CCC[C@H]1C3 [(S)-Tylophorine]
PBS (pH 7.4) Solubility μM Mean ± SE [1]: 2 ± 0 μM | LogD Mean ± SE [2]: 3.14 ± 0.02 | Permeability (Papp) Log [10^−6 cm/s] Mean ± SE [3]: −5.4 ± 0.17 Log [10^−6 cm/s] | Kel, min^−1 (elimination rate constant) [4]: 0.005 ± 0 min⁻¹ | t1/2, min [4]: 2.125 ± 0.05 h | IC50 [5, 14]: 16 ± 26 nM | IC50 [6, 15]: 35 ± 42 nM | IC50 ([7]; normoxia, read-out: IC50 MCF7): 62 ± 13 nM | IC50 [8, 16]: 85 ± 6 nM | IC50 ([9]; normoxia): 202 ± 3 nM | IC50 ([10]; normoxia, read-out: IC50 SW480): 69 ± 20 nM | IC50 ([11]; normoxia, read-out: IC50 MRC5): 27 ± 2 nM | HCR (Hypoxia Cytotoxicity Ratio = normoxic IC50/hypoxic IC50) ([12]; HTC 116): 0.5 | IC50 [12, 17]: 50.1 nM | IC50 [12, 18]: 35.1 nM | HCR (Hypoxia Cytotoxicity Ratio = normoxic IC50/hypoxic IC50) ([13]; H460): 1.1 | IC50 [13, 19]: 102 nM | IC50 [13, 20]: 108 nM

CN(C)CCCN1c2ccccc2Sc2ccc(Cl)cc21 [Chlorpromazine]
Permeability (Papp) Log [10^−6 cm/s] Mean ± SE [3]: −5.4 ± 0.13 Log [10^−6 cm/s]

CN1CCN(C2=Nc3cc(Cl)ccc3Nc3ccccc32)CC1 [Clozapine]
Permeability (Papp) Log [10^−6 cm/s] Mean ± SE [3]: −5.1 ± 0.12 Log [10^−6 cm/s]

COc1ccc2c3c(c4cc(OC)c(OC)cc4c2c1)C[C@H]1CCC[N+]1(Cc1c([N+](=O)[O-])ncn1C)C3.[Br-] (stereo partly drawn) [Compound 5a, (13aR)-2,3,6-trimethoxy-10-((1-methyl-4-nitro-1H-imidazol-5-yl)methyl)-10,11,12,13,13a, 14-hexahydro-9H-dibenzo[f,h]pyrrolo[1,2-b]isoquinolin-10-ium bromide]
PBS (pH 7.4) Solubility μM Mean ± SE [1]: 154 ± 0 μM | LogD Mean ± SE [2]: 0.69 ± 0.01 | Permeability (Papp) Log [10^−6 cm/s] Mean ± SE [3]: <−7 Log [10^−6 cm/s] | IC50 ([5]; Homo sapiens, HEK293, read-out: IC50 HEK293): 5080 ± 519 nM | IC50 ([6]; Cricetulus griseus, CHO-K1, read-out: IC50 CHO-K1): 1680 ± 542 nM | IC50 [7, 21]: 1530 ± 144 nM | IC50 [8, 22]: 1040 ± 21 nM | IC50 ([9]; Homo sapiens, RKO): 2030 ± 267 nM | IC50 [10, 23]: 1350 ± 0.126 nM | IC50 [11, 24]: 327 ± 147 nM | IC50 [12, 25]: 425 nM | IC50 [12, 26]: 16500 nM | IC50 [13, 27]: 618 nM | IC50 [13, 28]: 15800 nM

COc1cc2c3c(c4cc(OC)c(OC)cc4c2cc1OC)C[N+]1(Cc2c([N+](=O)[O-])ncn2C)CCC[C@@H]1C3.[Br-] (stereo partly drawn) [Compound 5c, (13aR)-2,3,6,7-tetramethoxy-10-((1-methyl-4-nitro-1H-imidazol-5-yl)methyl)-10,11,12,13,13a, 14-hexahydro-9H-dibenzo[f,h]pyrrolo[1,2-b]isoquinolin-10-ium bromide]
IC50 [7, 21]: 8050 ± 343 nM | IC50 [8, 22]: 9020 ± 1130 nM | IC50 ([9]; Homo sapiens, RKO): 8820 ± 3080 nM | IC50 [10, 23]: 9860 ± 1690 nM | IC50 [11, 24]: 3940 ± 127 nM | HCR (Hypoxia Cytotoxicity Ratio = normoxic IC50/hypoxic IC50) [12]: 1.5 | DR (Deactivation Ratio = IC50 (prodrug)/IC50 (parent drug)) ([12]; HTC 116, normoxia): 128 | IC50 [12, 25]: 3020 nM | IC50 [12, 26]: 9060 nM | HCR (Hypoxia Cytotoxicity Ratio = normoxic IC50/hypoxic IC50) [13]: 7.8 | DR (Deactivation Ratio = IC50 (prodrug)/IC50 (parent drug)) ([13]; H460, normoxia): 293 | IC50 [13, 27]: 6500 nM | IC50 [13, 28]: 51000 nM | melting point: 185 to 187 °C

Cn1c(COP(=O)(NCCBr)NCCBr)cnc1[N+](=O)[O-] [Evofosfamide, evofosfamide]
HCR (Hypoxia Cytotoxicity Ratio = normoxic IC50/hypoxic IC50) ([12]; HTC 116): 85 | IC50 [12, 25]: 20.1 nM | IC50 [12, 26]: 23.9 nM | HCR (Hypoxia Cytotoxicity Ratio = normoxic IC50/hypoxic IC50) ([13]; H460): 251 | IC50 [13, 27]: 17.2 nM | IC50 [13, 28]: 4320 nM

COC(=O)Nc1nc2ccc(C(=O)c3ccccc3)cc2[nH]1 [Mebendazole]
LogD Mean ± SE [2]: 3.26 ± 0.01

Cc1nccn1CC1CCc2c(c3ccccc3n2C)C1=O (centres unmarked) [Ondansetron]
PBS (pH 7.4) Solubility μM Mean ± SE [1]: 96 ± 3 μM

CS(=O)(=O)OCCN(CCBr)c1c(C(=O)NCCO)cc([N+](=O)[O-])cc1[N+](=O)[O-] [PR-104A]
HCR (Hypoxia Cytotoxicity Ratio = normoxic IC50/hypoxic IC50) ([12]; HTC 116): 10.5 | IC50 [12, 17]: 861 nM | IC50 [12, 18]: 16500 nM | HCR (Hypoxia Cytotoxicity Ratio = normoxic IC50/hypoxic IC50) ([13]; H460): 2.5 | IC50 [13, 19]: 533 nM | IC50 [13, 20]: 1340 nM

CNC(=C[N+](=O)[O-])NCCSCc1ccc(CN(C)C)o1 [Ranitidine]
Permeability (Papp) Log [10^−6 cm/s] Mean ± SE [3]: <−7 Log [10^−6 cm/s]
